# Results as given in patent US11203633B2, “Polynucleotides encoding antibodies or antigen binding fragments thereof that bind pseudomonas perv” (priority 2011, dated 2021).
# Assays:
# [1] = tested on: P. aeruginosa strain 6077 (O11-cytotoxic); test: Corneal infection (ocular keratitis) model in mice; assay type: in vivo, Pseudomonas aeruginosa; settings: C3H/HeN mice; IP, 16 hours prior to infection with 6077 1×10^6 CFU; graded at 48 h; FIG. 8H
# Experimental: Antibodies or PBS were administered 24 hours before infection in each model. P. aeruginosa acute pneumonia, keratitis, and thermal injury infection models were performed as described (DiGiandomenico, A., et al., Proc Natl Acad Sci USA 104, 4624-4629 (2007)), with modifications. In the acute pneumonia model, BALB/c mice (The Jackson Laboratory) were infected with P. aeruginosa strains suspended in a 0.05 ml inoculum. In the thermal injury model, CF-1 mice (Charles River) received a 10% total body surface area burn with a metal brand heated to 92° C. for 10 seconds. Animals were infected subcutaneously with P. aeruginosa strain 6077 at the indicated dose. For organ burden experiments, acute pneumonia was induced in mice followed by harvesting of lungs, spleens, and kidneys 24 hours post-infection for determination of CFU.
# Cam-003 and WapR-004 efficacy was next evaluated in a P. aeruginosa corneal infection model which emphasizes the pathogens ability to attach and colonize damaged tissue. […] FIG. 8 (H): The activity of anti-Psl and anti-PcrV monoclonal antibodies V2L2 was tested in a P. aeruginosa mouse ocular keratitis model. […]
# [2] = tested on: wild type PAO1, PAO1ΔpslA and PAO1ΔpslA complemented with pslA; test: OPK assay with PAO1 pslA mutant strains; assay type: cell-based, Pseudomonas aeruginosa; settings: FIG. 3F-G
# Experimental: This example describes the evaluation of prioritized human IgG1 antibodies to promote OPK of P. aeruginosa. […] OPK assays were performed as described in (DiGiandomenico, A., et al., Infect Immun 72, 7012-7021 (2004)), with modifications. Briefly, assays were performed in 96-well plates using 0.025 ml of each OPK component; P. aeruginosa strains; diluted baby rabbit serum; differentiated HL-60 cells; and monoclonal antibody. In some OPK assays, luminescent P. aeruginosa strains, which were constructed as described (Choi, K. H., et al., Nat Methods 2, 443-448 (2005)), were used. Luminescent OPK assays were performed as described above but with determination of relative luciferase units (RLUs) using a Perkin Elmer ENVISION Multilabel plate reader (Perkin Elmer).
# This example describes identification of the target of anti-P. aeruginosa antibodies derived from phenotypic screening. Target analysis was performed to test whether the serotype independent antibodies targeted protein or carbohydrate antigens. […] Isogenic mutants were constructed in genes responsible for 0-antigen, alginate, and LPS core biosynthesis; wbpL (O-antigen-deficient); wbpL/algD (O-antigen and alginate deficient); rmlC (O-antigen-deficient and truncated outer core); and galU (O-antigen-deficient and truncated inner core). […]
substance,measurement,setting,value
"Cam-003: anti-Psl human IgG1 monoclonal antibody; VH SEQ ID NO:1, VL SEQ ID NO:2",corneal pathology and CFU in total eye homogenates vs R347,[1],significantly less pathology and reduced bacterial colony forming units (CFU) in total eye homogenates
same,opsonophagocytic killing of Psl-producing vs Psl-deficient strains,[2],only mediates killing of strains capable of producing Psl
